# From publication PMC6540285, “Evaluation of Protein Kinase Inhibitors with PLK4 Cross-Over Potential in a Pre-Clinical Model of Cancer” (International Journal of Molecular Sciences, 2019)
# Tests used:
# ABL1 T315I = ABL1 T315I (Homo sapiens, UniProt P00519, T315I); test: SelectScreen kinase profiling, ZLYTE; format: biochemical
# ADRBK1 (GRK2) = ADRBK1 (GRK2) (Homo sapiens, UniProt P25098); test: SelectScreen kinase profiling, ZLYTE; format: biochemical
# AMPK (A1/B1/G3) = AMPK (A1/B1/G3) (Homo sapiens, UniProt Q13131); test: SelectScreen kinase profiling, LanthaScreen binding
# AXL = AXL (Homo sapiens, UniProt P30530); test: SelectScreen kinase profiling, ZLYTE; format: biochemical
# CDK1/cyclin B = CDK1/cyclin B (Homo sapiens, UniProt P06493); test: SelectScreen kinase profiling, ZLYTE; format: biochemical
# CDK9/cyclin K = CDK9/cyclin K (Homo sapiens, UniProt P50750); test: SelectScreen kinase profiling, LanthaScreen binding
# CDK9/cyclin T1 = CDK9/cyclin T1 (Homo sapiens, UniProt P50750); test: SelectScreen kinase profiling, Adapta; format: biochemical; conditions: CDK9/cyclin T1, 10 µM
# CDKL5 = CDKL5 (Homo sapiens, UniProt O76039); test: SelectScreen kinase profiling, ZLYTE; format: biochemical; conditions: CDKL5, 10 µM
# CLK4 = CLK4 (Homo sapiens, UniProt Q9HAZ1); test: SelectScreen kinase profiling, LanthaScreen binding; conditions: CLK4, 10 µM
# CLK4, sequence (Q9HAZ1 whole entry): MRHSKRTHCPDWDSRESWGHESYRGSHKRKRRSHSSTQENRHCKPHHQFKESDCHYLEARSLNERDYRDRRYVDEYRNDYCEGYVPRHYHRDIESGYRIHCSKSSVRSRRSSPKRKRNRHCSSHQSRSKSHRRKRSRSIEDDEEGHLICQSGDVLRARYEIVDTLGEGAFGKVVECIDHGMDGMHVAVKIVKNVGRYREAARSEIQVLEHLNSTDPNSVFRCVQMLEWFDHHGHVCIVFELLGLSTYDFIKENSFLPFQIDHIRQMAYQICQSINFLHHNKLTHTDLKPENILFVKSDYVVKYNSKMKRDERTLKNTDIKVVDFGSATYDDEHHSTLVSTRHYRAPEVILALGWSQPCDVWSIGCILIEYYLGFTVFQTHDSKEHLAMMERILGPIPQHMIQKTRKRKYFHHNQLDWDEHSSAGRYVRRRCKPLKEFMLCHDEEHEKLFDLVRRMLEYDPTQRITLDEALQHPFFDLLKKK
# DDR1 = DDR1 (Homo sapiens, UniProt Q08345); test: as above; conditions: DDR1, 10 µM
# EPHA3 = EPHA3 (Homo sapiens, UniProt P29320); test: as above; conditions: EPHA3, 10 µM
# EPHB3 = EPHB3 (Homo sapiens, UniProt P54753); test: SelectScreen kinase profiling, ZLYTE; format: biochemical; conditions: EPHB3, 10 µM
# ERN1 = ERN1 (Homo sapiens, UniProt O75460); test: SelectScreen kinase profiling, LanthaScreen binding; conditions: ERN1, 10 µM
# FGFR3 K650E = FGFR3 K650E (Homo sapiens, UniProt P22607, K650E); test: SelectScreen kinase profiling, ZLYTE; format: biochemical
# FLT3 D835Y = FLT3 D835Y (Homo sapiens, UniProt P36888, D835Y); test: SelectScreen kinase profiling, ZLYTE; format: biochemical
# FRAP1 (mTOR) = FRAP1 (mTOR) (Homo sapiens, UniProt P42345); test: SelectScreen kinase profiling, ZLYTE; format: biochemical
# IGF1R = IGF1R (Homo sapiens, UniProt P08069); test: SelectScreen kinase profiling, ZLYTE; format: biochemical
# JAK2 = JAK2 (Homo sapiens, UniProt O60674); test: SelectScreen kinase profiling, ZLYTE; format: biochemical; conditions: JAK2, 10 µM
# LRRK2 G2019S = LRRK2 G2019S (Homo sapiens, UniProt Q5S007, G2019S); test: SelectScreen kinase profiling, Adapta; format: biochemical
# [1] = molecular target: MAP2K1 (MEK1) S218D S222D (Homo sapiens, UniProt Q02750, S218D/S222D); test: SelectScreen kinase profiling, LanthaScreen binding
# MAP2K6 (MKK6) [2] = molecular target: T1, MAP2K6 (MKK6) (Homo sapiens, UniProt P52564); test: as above
# T1 sequence (P52564 whole entry): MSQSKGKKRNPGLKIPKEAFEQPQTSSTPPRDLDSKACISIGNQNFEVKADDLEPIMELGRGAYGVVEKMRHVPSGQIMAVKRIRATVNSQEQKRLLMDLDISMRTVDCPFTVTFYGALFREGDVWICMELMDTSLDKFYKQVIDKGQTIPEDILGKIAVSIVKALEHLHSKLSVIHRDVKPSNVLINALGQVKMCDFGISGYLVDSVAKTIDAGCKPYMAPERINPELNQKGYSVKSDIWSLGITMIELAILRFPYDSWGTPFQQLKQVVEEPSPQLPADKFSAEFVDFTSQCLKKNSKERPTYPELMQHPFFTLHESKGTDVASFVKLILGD
# MAP2K6 (MKK6) [3] = molecular target: T1, MAP2K6 (MKK6); test: SelectScreen kinase profiling, ZLYTE; format: biochemical
# MAP3K2 (MEKK2) = MAP3K2 (MEKK2) (Homo sapiens, UniProt Q9Y2U5); test: SelectScreen kinase profiling, LanthaScreen binding
# MAPK3 (ERK1) = MAPK3 (ERK1) (Homo sapiens, UniProt P27361); test: SelectScreen kinase profiling, ZLYTE; format: biochemical
# MAPK8 (JNK1) = MAPK8 (JNK1) (Homo sapiens, UniProt P45983); test: SelectScreen kinase profiling, ZLYTE; format: biochemical
# MELK = MELK (Homo sapiens, UniProt Q14680); test: SelectScreen kinase profiling, ZLYTE; format: biochemical
# MERTK (cMER) = MERTK (cMER) (Homo sapiens, UniProt Q12866); test: SelectScreen kinase profiling, ZLYTE; format: biochemical
# MYO3B (MYO3 beta) = MYO3B (MYO3 beta) (Homo sapiens, UniProt Q8WXR4); test: SelectScreen kinase profiling, LanthaScreen binding
# NEK2 = NEK2 (Homo sapiens, UniProt P51955); test: SelectScreen kinase profiling, ZLYTE; format: biochemical; conditions: NEK2, 10 µM
# NEK4 = NEK4 (Homo sapiens, UniProt P51957); test: SelectScreen kinase profiling, ZLYTE; format: biochemical; conditions: NEK4, 10 µM
# PIK3C2B (PI3K-C2 beta) = PIK3C2B (PI3K-C2 beta) (Homo sapiens, UniProt O00750); test: SelectScreen kinase profiling, Adapta; format: biochemical
# PIK3C2B (PI3K-C2 beta), sequence (O00750 whole entry): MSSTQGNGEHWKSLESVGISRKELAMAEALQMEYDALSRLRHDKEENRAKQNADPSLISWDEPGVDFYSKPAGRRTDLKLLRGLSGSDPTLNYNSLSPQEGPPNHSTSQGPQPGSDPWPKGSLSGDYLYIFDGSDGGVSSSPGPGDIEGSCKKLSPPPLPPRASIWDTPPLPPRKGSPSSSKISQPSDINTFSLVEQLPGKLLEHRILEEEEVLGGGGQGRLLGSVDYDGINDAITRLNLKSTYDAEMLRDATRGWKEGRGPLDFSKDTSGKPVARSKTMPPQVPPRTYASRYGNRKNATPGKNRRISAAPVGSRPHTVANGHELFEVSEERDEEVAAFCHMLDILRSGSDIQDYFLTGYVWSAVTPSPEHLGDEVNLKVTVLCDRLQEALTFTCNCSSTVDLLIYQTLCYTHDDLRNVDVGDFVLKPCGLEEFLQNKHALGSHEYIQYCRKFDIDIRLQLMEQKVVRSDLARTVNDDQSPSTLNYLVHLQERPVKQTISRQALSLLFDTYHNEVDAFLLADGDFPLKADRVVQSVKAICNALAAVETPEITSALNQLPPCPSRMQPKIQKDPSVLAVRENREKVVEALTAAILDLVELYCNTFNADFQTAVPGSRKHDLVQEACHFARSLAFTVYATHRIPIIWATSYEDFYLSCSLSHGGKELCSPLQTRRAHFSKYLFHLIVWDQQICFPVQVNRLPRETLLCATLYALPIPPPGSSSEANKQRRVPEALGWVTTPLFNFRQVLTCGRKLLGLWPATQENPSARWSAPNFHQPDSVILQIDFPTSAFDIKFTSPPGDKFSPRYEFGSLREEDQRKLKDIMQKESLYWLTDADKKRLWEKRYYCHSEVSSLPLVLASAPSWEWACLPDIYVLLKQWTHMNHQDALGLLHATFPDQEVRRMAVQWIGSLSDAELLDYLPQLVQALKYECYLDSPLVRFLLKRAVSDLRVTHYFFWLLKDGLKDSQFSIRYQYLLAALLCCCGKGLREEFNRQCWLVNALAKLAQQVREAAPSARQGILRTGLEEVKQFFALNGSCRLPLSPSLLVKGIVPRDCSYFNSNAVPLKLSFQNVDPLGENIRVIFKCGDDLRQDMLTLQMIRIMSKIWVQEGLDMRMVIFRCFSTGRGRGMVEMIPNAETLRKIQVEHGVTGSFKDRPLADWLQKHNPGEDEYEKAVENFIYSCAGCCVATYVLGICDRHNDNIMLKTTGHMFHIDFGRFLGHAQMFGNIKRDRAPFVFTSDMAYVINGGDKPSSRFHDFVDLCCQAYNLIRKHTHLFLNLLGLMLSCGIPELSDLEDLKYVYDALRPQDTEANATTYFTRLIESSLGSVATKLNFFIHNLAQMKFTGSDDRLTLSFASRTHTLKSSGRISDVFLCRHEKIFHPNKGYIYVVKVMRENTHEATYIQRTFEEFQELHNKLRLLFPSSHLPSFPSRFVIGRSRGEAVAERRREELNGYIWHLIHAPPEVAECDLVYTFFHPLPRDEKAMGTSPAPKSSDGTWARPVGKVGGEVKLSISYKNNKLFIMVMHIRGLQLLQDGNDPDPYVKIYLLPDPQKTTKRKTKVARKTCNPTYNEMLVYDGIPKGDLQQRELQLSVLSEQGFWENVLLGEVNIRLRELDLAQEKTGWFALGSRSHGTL
# PIM3 = PIM3 (Homo sapiens, UniProt Q86V86); test: SelectScreen kinase profiling, ZLYTE; format: biochemical; conditions: PIM3, 10 µM
# RET S891A = RET S891A (Homo sapiens, UniProt P07949, S891A); test: SelectScreen kinase profiling, ZLYTE; format: biochemical
# SIK3 = SIK3 (Homo sapiens, UniProt Q9Y2K2); test: SelectScreen kinase profiling, LanthaScreen binding; conditions: SIK3, 10 µM
# SIK3, sequence (Q9Y2K2 whole entry): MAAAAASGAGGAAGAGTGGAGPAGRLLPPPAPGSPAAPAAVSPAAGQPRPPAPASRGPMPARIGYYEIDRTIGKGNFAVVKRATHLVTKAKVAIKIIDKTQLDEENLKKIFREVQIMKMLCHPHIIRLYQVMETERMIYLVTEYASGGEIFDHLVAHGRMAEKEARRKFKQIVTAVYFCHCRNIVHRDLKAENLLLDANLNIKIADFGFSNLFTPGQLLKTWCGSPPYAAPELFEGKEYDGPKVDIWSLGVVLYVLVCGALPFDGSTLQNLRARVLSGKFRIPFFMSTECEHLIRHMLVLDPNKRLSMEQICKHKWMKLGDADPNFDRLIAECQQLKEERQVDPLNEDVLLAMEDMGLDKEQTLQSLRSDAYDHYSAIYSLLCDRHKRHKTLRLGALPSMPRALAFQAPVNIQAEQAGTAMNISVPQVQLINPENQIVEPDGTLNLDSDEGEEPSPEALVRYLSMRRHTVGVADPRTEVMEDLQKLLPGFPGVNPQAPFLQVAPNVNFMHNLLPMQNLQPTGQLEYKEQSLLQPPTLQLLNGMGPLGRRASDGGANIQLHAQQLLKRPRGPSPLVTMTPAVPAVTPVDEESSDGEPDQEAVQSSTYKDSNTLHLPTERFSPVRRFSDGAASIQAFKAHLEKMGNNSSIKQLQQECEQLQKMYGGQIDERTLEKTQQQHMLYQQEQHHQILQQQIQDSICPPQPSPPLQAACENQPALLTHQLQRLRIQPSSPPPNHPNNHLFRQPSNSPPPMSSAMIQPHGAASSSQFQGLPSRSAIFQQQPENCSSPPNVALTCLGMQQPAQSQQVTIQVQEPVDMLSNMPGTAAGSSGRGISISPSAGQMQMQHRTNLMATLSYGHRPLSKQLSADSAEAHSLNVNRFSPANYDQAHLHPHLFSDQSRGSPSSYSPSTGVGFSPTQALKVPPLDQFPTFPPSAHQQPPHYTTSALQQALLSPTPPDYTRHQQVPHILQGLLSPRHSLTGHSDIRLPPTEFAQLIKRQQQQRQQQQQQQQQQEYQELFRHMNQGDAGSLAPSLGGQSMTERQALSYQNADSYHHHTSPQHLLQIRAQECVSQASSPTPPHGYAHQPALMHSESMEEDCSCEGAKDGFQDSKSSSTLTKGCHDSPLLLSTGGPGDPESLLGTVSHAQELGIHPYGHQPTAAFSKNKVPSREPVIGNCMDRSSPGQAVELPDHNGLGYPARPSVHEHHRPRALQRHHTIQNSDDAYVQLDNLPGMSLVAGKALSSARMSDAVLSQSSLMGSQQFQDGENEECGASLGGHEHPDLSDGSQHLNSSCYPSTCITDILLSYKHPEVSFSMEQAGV
# STK23 (MSSK1) = STK23 (MSSK1) (Homo sapiens, UniProt Q9UPE1); test: SelectScreen kinase profiling, ZLYTE; format: biochemical
# Text: Kinase Technology % Inhibition Avg Kinase Technology % Inhibition Avg
# ZAP70 = ZAP70 (Homo sapiens, UniProt P43403); test: SelectScreen kinase profiling, ZLYTE; format: biochemical; conditions: ZAP70, 10 µM
# ZAP70, sequence (P43403 whole entry): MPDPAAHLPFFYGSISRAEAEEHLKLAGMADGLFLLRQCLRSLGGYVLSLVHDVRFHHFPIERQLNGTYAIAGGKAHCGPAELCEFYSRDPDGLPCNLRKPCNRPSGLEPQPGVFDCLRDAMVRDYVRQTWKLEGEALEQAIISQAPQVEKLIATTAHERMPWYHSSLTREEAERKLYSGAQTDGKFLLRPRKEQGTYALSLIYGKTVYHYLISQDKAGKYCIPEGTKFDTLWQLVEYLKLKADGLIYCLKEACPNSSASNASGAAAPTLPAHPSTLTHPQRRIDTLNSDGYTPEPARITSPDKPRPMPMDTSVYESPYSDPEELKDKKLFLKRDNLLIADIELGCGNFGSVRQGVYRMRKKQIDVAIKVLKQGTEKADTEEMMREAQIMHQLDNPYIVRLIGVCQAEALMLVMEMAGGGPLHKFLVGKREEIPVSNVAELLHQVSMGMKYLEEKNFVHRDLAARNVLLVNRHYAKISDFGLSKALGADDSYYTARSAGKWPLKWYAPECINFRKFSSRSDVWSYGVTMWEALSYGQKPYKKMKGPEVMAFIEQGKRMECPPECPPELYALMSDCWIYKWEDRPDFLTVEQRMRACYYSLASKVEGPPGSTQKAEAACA
# Text: Kinase Technology % Inhibition Avg Kinase Technology % Inhibition Avg […]
# TESK1 LanthaScreen 37 ZAP70 ZLYTE 24
# cleavage (Thermo Fisher Scientific, USA)
# hERG channel = hERG channel (Homo sapiens, UniProt Q12809); test: biochemical
# P450 3A5 = P450 3A5 (Homo sapiens, UniProt P20815); test: SelectScreen P450 Vivid biochemical assay; conditions: 10000nM
# P450 3A5, sequence (P20815 whole entry): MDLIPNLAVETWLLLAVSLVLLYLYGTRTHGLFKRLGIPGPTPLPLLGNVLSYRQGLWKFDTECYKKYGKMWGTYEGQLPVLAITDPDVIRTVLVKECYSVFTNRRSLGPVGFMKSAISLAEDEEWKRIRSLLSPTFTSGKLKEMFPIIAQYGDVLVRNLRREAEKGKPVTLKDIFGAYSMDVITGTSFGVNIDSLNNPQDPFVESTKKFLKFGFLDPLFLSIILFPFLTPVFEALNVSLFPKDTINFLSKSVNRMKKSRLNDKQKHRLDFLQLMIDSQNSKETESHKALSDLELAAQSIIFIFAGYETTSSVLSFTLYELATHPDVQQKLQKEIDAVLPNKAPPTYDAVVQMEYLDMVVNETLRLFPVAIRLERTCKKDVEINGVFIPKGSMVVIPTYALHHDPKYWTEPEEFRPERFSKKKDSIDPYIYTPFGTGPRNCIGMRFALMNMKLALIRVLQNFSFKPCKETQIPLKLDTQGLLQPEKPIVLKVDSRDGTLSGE
smiles,measurement,setting,value
O=C(c1ccc(/C=C/c2n[nH]c3ccccc23)cc1)N1CCNCC1 [KW-2449],inhibition at 10 µM,ABL1 T315I,101%
same,inhibition at 10 µM,ADRBK1 (GRK2),38%
same,inhibition at 10 µM,AMPK (A1/B1/G3),71%
same,inhibition at 10 µM,AXL,95%
same,inhibition at 10 µM,CDK1/cyclin B,88%
same,inhibition at 10 µM,CDK9/cyclin K,38%
same,inhibition at 10 µM,CDK9/cyclin T1,82%
same,inhibition at 10 µM,CDKL5,56%
same,inhibition at 10 µM,CLK4,84%
same,inhibition at 10 µM,DDR1,55%
same,inhibition at 10 µM,EPHA3,61%
same,inhibition at 10 µM,EPHB3,21%
same,inhibition at 10 µM,ERN1,32%
same,inhibition at 10 µM,FGFR3 K650E,97%
same,inhibition at 10 µM,FLT3 D835Y,100%
same,inhibition at 10 µM,FRAP1 (mTOR),9%
same,inhibition at 10 µM,IGF1R,95%
same,inhibition at 10 µM,JAK2,98%
same,inhibition at 10 µM,LRRK2 G2019S,100%
same,inhibition at 10 µM,[1],66%
same,inhibition at 10 µM,MAP2K6 (MKK6) [2],56%
same,inhibition at 10 µM,MAP2K6 (MKK6) [3],79%
same,inhibition at 10 µM,MAP3K2 (MEKK2),86%
same,inhibition at 10 µM,MAPK3 (ERK1),41%
same,inhibition at 10 µM,MAPK8 (JNK1),96%
same,inhibition at 10 µM,MELK,101%
same,inhibition at 10 µM,MERTK (cMER),93%
same,inhibition at 10 µM,MYO3B (MYO3 beta),88%
same,inhibition at 10 µM,NEK2,47%
same,inhibition at 10 µM,NEK4,96%
same,inhibition at 10 µM,PIK3C2B (PI3K-C2 beta),9%
same,inhibition at 10 µM,PIM3,2%
same,inhibition at 10 µM,RET S891A,97%
same,inhibition at 10 µM,SIK3,-1%
same,inhibition at 10 µM,STK23 (MSSK1),59%
same,inhibition at 10 µM,ZAP70,24%
same,IC50,hERG channel,> 10 µM
same,% Inhibition 3A5 BOMCC,P450 3A5; substrate BOMCC,14%
same,% Inhibition 3A5 DBOMF,P450 3A5; substrate DBOMF,10%
